The test system of the assay is Magnusiomyces capitatus. Put plainly: Antimicrobial activity against Blastoschizomyces capitatus by microdilution method. It is filed as functional. A general note: Broth dilution looks for growth in wells or tubes with falling amounts of substance.

As usually defined, the MIC is the lowest concentration that inhibits growth of the organism. Read a high MIC as a less susceptible organism.

Values after ≈ are worked out from the molar mass of the structure shown. Numbered stars: 1 amine (or outer) side, 2 acyl side, 3 side chain; on linkers, the order of the positions; unused ones are H or OH. Bridge positions count the residues as written; N and C are the ends. Square brackets hold non-standard residues; d marks the D form. Peptide text beside a SMILES is read from it. * marks the point of attachment. hTyr(3S-OH,4S-OH,3'-OSO3H) = N[C@H](C(=O)O)[C@H](O)[C@@H](O)c1ccc(O)c(OS(=O)(=O)O)c1; pTerphenylCO(4''-OnC5H11) = CCCCCOc1ccc(-c2ccc(-c3ccc(C(=O)*)cc3)cc2)cc1; Orn(4R-OH,5R-OH) = O=C([C@H](C[C@@H](O)[C@@H](O)N[*:3])N[*:1])[*:2]; hTyr(3S-OH,4S-OH) = N[C@H](C(=O)O)[C@H](O)[C@@H](O)c1ccc(O)cc1; Pro(3S-OH,4S-Me) = C[C@H]1CN[C@H](C(=O)O)[C@H]1O; X1 = CCCCCOc1ccc(-c2cc(-c3ccc(C(=O)*)cc3)no2)cc1; Gln(3R-OH) = NC(=O)C[C@@H](O)[C@H](N)C(=O)O; Hyp = O=C(O)[C@@H]1C[C@@H](O)CN1

Compound `C[C@@H]1[C@H](O)[C@@H](C)/C=C/C=C/C=C/C=C/C=C/C=C/C=C/[C@H](O[C@@H]2O[C@H](C)[C@@H](O)[C@H](N)[C@@H]2O)C[C@@H]2O[C@](O)(C[C@@H](O)C[C@@H](O)[C@H](O)CC[C@@H](O)C[C@@H](O)CC(=O)O[C@H]1C)C[C@H](O)[C@H]2C(=O)O` [AMPHOTERICIN B] returned a minimum inhibitory concentration (MIC) of 0.5 µg/mL (≈ 0.541 µM).
The value for `CCCCCOc1ccc(-c2ccc(-c3ccc(C(=O)N[C@H]4C[C@@H](O)[C@@H](O)NC(=O)[C@@H]5[C@@H](O)[C@@H](C)CN5C(=O)[C@H]([C@@H](C)O)NC(=O)[C@H]([C@H](O)[C@@H](O)c5ccc(O)cc5)NC(=O)[C@@H]5C[C@@H](O)CN5C(=O)[C@H]([C@@H](C)O)NC4=O)cc3)cc2)cc1` [ANIDULAFUNGIN] ({pTerphenylCO(4''-OnC5H11)}-[Orn(4R-OH,5R-OH)]T[Hyp][hTyr(3S-OH,4S-OH)]T[Pro(3S-OH,4S-Me)]; lactam 1-C) was 0.5 µg/mL (≈ 0.438 µM); that for `CC[C@H](C)C[C@H](C)CCCCCCCCC(=O)N[C@H]1C[C@@H](O)[C@@H](NCCN)NC(=O)[C@@H]2[C@@H](O)CCN2C(=O)[C@H]([C@H](O)CCN)NC(=O)[C@H]([C@H](O)[C@@H](O)c2ccc(O)cc2)NC(=O)[C@@H]2C[C@@H](O)CN2C(=O)[C@H]([C@@H](C)O)NC1=O` [CASPOFUNGIN] was 8 µg/mL (≈ 7.32 µM).
`OC(Cn1cncn1)(Cn1cncn1)c1ccc(F)cc1F` [FLUCONAZOLE]: the MIC worked out at 4 µg/mL (≈ 13.1 µM).
The value for `Nc1nc(=O)[nH]cc1F` [FLUCYTOSINE] was at most 0.06 µg/mL.
Turning to `CCC(C)n1ncn(-c2ccc(N3CCN(c4ccc(OCC5COC(Cn6cncn6)(c6ccc(Cl)cc6Cl)O5)cc4)CC3)cc2)c1=O` (centres undefined) [ITRACONAZOLE], it took 0.06 µg/mL (≈ 0.085 µM) to inhibit growth (MIC).
`CCCCCOc1ccc(-c2cc(-c3ccc(C(=O)N[C@H]4C[C@@H](O)[C@@H](O)NC(=O)[C@@H]5[C@@H](O)[C@@H](C)CN5C(=O)[C@H]([C@H](O)CC(N)=O)NC(=O)[C@H]([C@H](O)[C@@H](O)c5ccc(O)c(OS(=O)(=O)O)c5)NC(=O)[C@@H]5C[C@@H](O)CN5C(=O)[C@H]([C@@H](C)O)NC4=O)cc3)no2)cc1` [MICAFUNGIN] (X1-[Orn(4R-OH,5R-OH)]T[Hyp][hTyr(3S-OH,4S-OH,3'-OSO3H)][Gln(3R-OH)][Pro(3S-OH,4S-Me)]; lactam 1-C): the MIC was 0.5 µg/mL (≈ 0.394 µM).
On to `CC[C@@H]([C@H](C)O)n1ncn(-c2ccc(N3CCN(c4ccc(OC[C@@H]5CO[C@@](Cn6cncn6)(c6ccc(F)cc6F)C5)cc4)CC3)cc2)c1=O` [POSACONAZOLE], for which the lowest concentration to inhibit growth (MIC) was 0.12 µg/mL (≈ 0.171 µM).
`C[C@@H](c1ncncc1F)[C@](O)(Cn1cncn1)c1ccc(F)cc1F` [VORICONAZOLE] registered a minimal inhibitory concentration (MIC) of 0.06 µg/mL (≈ 0.172 µM).

The values above are taken from ChEMBL document CHEMBL1649260, “Case of fatal Blastoschizomyces capitatus infection occurring in a patient receiving empiric micafungin therapy” (2009).
